In the NIST ThermoML archive (doi:10.1021/je5005752):
Several values for one entry are separate records, joined by “and”; a condition that tells them apart may be missing. Equal entries are not always repeated. ± gives the expanded uncertainty stated by the source.

Legend:
[1] = 101 kPa, Liquid; for viscosity: Falling or rolling sphere viscometry; for mass density: Vibrating tube method
[2] = xn = mol fraction of the nth substance listed; conditions: 101 kPa, Liquid, x2 = 0; for viscosity: Falling or rolling sphere viscometry; for mass density: Vibrating tube method

CC(C)CO [2-methyl-1-propanol]
[1]
Conditions | mass density [kg/m3] | viscosity [mPa·s]
288.15 K | 805.88 ± 0.19 | 4.829 ± 0.1
293.15 K | 802.03 ± 0.19 | 4.052 ± 0.086
298.15 K | 798.16 ± 0.2 | 3.431 ± 0.073
303.15 K | 794.25 ± 0.2 | 2.923 ± 0.062
308.15 K | 790.31 ± 0.2 | 2.505 ± 0.053
313.15 K | 786.31 ± 0.2 | 2.161 ± 0.046
318.15 K | 782.26 ± 0.2 | 1.876 ± 0.04
323.15 K | 778.14 ± 0.2 | 1.652 ± 0.035

CC(C)CO [2-methyl-1-propanol] + CCCC(=O)OCC
[2]
Conditions | mass density [kg/m3] | viscosity [mPa·s]
288.15 K | 805.88 ± 0.19 | 4.829 ± 0.1
293.15 K | 802.03 ± 0.19 | 4.052 ± 0.086
298.15 K | 798.16 ± 0.2 | 3.431 ± 0.073
303.15 K | 794.25 ± 0.2 | 2.923 ± 0.062
308.15 K | 790.31 ± 0.2 | 2.505 ± 0.053
313.15 K | 786.31 ± 0.2 | 2.161 ± 0.046
318.15 K | 782.26 ± 0.2 | 1.876 ± 0.04
323.15 K | 778.14 ± 0.2 | 1.652 ± 0.035

CC(C)CCO [3-methylbutan-1-ol]
[1]
Conditions | mass density [kg/m3] | viscosity [mPa·s]
288.15 K | 812.29 ± 0.27 | 5.057 ± 0.11
293.15 K | 808.58 ± 0.27 | 4.288 ± 0.094
298.15 K | 804.84 ± 0.27 | 3.671 ± 0.08
303.15 K | 801.09 ± 0.27 | 3.155 ± 0.069
308.15 K | 797.31 ± 0.27 | 2.73 ± 0.06
313.15 K | 793.51 ± 0.27 | 2.375 ± 0.052
318.15 K | 789.67 ± 0.27 | 2.076 ± 0.045
323.15 K | 785.79 ± 0.27 | 1.841 ± 0.04

CC(C)CCO [3-methylbutan-1-ol] + CCCC(=O)OCC
[2]
Conditions | mass density [kg/m3] | viscosity [mPa·s]
288.15 K | 812.29 ± 0.27 | 5.057 ± 0.11
293.15 K | 808.58 ± 0.27 | 4.288 ± 0.094
298.15 K | 804.84 ± 0.27 | 3.671 ± 0.08
303.15 K | 801.09 ± 0.27 | 3.155 ± 0.069
308.15 K | 797.31 ± 0.27 | 2.73 ± 0.06
313.15 K | 793.51 ± 0.27 | 2.375 ± 0.052
318.15 K | 789.67 ± 0.27 | 2.076 ± 0.045
323.15 K | 785.79 ± 0.27 | 1.841 ± 0.04

CCCCO [butan-1-ol]
[1]
Conditions | mass density [kg/m3] | viscosity [mPa·s]
288.15 K | 813.46 ± 0.2 | 3.365 ± 0.072
293.15 K | 809.66 ± 0.2 | 2.913 ± 0.062
298.15 K | 805.84 ± 0.2 | 2.563 ± 0.055
303.15 K | 801.99 ± 0.21 | 2.257 ± 0.048
308.15 K | 798.12 ± 0.21 | 1.994 ± 0.043
313.15 K | 794.22 ± 0.21 | 1.779 ± 0.038
318.15 K | 790.28 ± 0.21 | 1.576 ± 0.034
323.15 K | 786.29 ± 0.21 | 1.422 ± 0.03

CCCCO [butan-1-ol] + CCCC(=O)OCC
[2]
Conditions | mass density [kg/m3] | viscosity [mPa·s]
288.15 K | 813.46 ± 0.2 | 3.365 ± 0.072
293.15 K | 809.66 ± 0.2 | 2.913 ± 0.062
298.15 K | 805.84 ± 0.2 | 2.563 ± 0.055
303.15 K | 801.99 ± 0.21 | 2.257 ± 0.048
308.15 K | 798.12 ± 0.21 | 1.994 ± 0.043
313.15 K | 794.22 ± 0.21 | 1.779 ± 0.038
318.15 K | 790.28 ± 0.21 | 1.576 ± 0.034
323.15 K | 786.29 ± 0.21 | 1.422 ± 0.03

CCCC(=O)OCC [ethyl butanoate]
[1]
Conditions | mass density [kg/m3] | viscosity
288.15 K | 884.16 ± 0.27 | 0.7224 ± 0.016 mPa·s
293.15 K | 878.9 ± 0.27 | 0.6808 ± 0.015 mPa·s
298.15 K | 873.62 ± 0.27 | 0.643 ± 0.014 mPa·s
303.15 K | 868.33 ± 0.27 | 0.6072 ± 0.013 mPa·s
308.15 K | 863.02 ± 0.27 | 0.5736 ± 0.013 mPa·s
313.15 K | 857.7 ± 0.27 | 0.5424 ± 0.012 mPa·s and 0.5425 ± 0.012 mPa·s
318.15 K | 852.36 ± 0.27 | 0.5132 ± 0.011 mPa·s
323.15 K | 847 ± 0.27 | 0.487 ± 0.011 mPa·s

CCCCCCO [hexan-1-ol]
[1]
Conditions | mass density [kg/m3] | viscosity [mPa·s]
288.15 K | 822.26 ± 0.27 | 6.308 ± 0.14
293.15 K | 818.7 ± 0.27 | 5.332 ± 0.12
298.15 K | 815.12 ± 0.27 | 4.538 ± 0.099
303.15 K | 811.52 ± 0.27 | 3.896 ± 0.085
308.15 K | 807.89 ± 0.27 | 3.361 ± 0.073
313.15 K | 804.25 ± 0.27 | 2.917 ± 0.064
318.15 K | 800.56 ± 0.27 | 2.546 ± 0.056
323.15 K | 796.85 ± 0.27 | 2.241 ± 0.049

CCCCCCO [hexan-1-ol] + CCCC(=O)OCC
[2]
Conditions | mass density [kg/m3] | viscosity [mPa·s]
288.15 K | 822.26 ± 0.27 | 6.308 ± 0.14
293.15 K | 818.7 ± 0.27 | 5.332 ± 0.12
298.15 K | 815.12 ± 0.27 | 4.538 ± 0.099
303.15 K | 811.52 ± 0.27 | 3.896 ± 0.085
308.15 K | 807.89 ± 0.27 | 3.361 ± 0.073
313.15 K | 804.25 ± 0.27 | 2.917 ± 0.064
318.15 K | 800.56 ± 0.27 | 2.546 ± 0.056
323.15 K | 796.85 ± 0.27 | 2.241 ± 0.049

CCCO [propan-1-ol]
[1]
Conditions | mass density [kg/m3] | viscosity [mPa·s]
288.15 K | 807.75 ± 0.2 | 2.514 ± 0.054
293.15 K | 803.77 ± 0.21 | 2.208 ± 0.047
298.15 K | 799.76 ± 0.21 | 1.95 ± 0.042
303.15 K | 795.72 ± 0.21 | 1.727 ± 0.037
308.15 K | 791.64 ± 0.21 | 1.542 ± 0.033
313.15 K | 787.52 ± 0.21 | 1.378 ± 0.029
318.15 K | 783.36 ± 0.21 | 1.236 ± 0.026
323.15 K | 779.14 ± 0.21 | 1.124 ± 0.024

CCCO [propan-1-ol] + CCCC(=O)OCC
[2]
Conditions | mass density [kg/m3] | viscosity [mPa·s]
288.15 K | 807.75 ± 0.2 | 2.514 ± 0.054
293.15 K | 803.77 ± 0.21 | 2.208 ± 0.047
298.15 K | 799.76 ± 0.21 | 1.95 ± 0.042
303.15 K | 795.72 ± 0.21 | 1.727 ± 0.037
308.15 K | 791.64 ± 0.21 | 1.542 ± 0.033
313.15 K | 787.52 ± 0.21 | 1.378 ± 0.029
318.15 K | 783.36 ± 0.21 | 1.236 ± 0.026
323.15 K | 779.14 ± 0.21 | 1.124 ± 0.024
